Consider seven compounds from ChEMBL document CHEMBL1132710, “Antineoplastic agents. 410. Asymmetric hydroxylation of trans-combretastatin A-4” (1999).

By GI50 is commonly meant the concentration giving 50% growth inhibition.

Values after ≈ are worked out from the molar mass of the structure shown.

Common to all, as to type: functional
The subject of one experiment is Staphylococcus aureus. The experiment in a line: Antimicrobial activity against Staphylococcus aureus.
The subject of the next experiment is Neisseria gonorrhoeae. The experiment in a line: Antimicrobial activity against Neisseria gonorrhoeae.
The subject of the next experiment is NCI-H460. The experiment in a line: Compound was evaluated against Human cell line lung-NSC NCI-H460.
The next experiment deals with SK-MEL-5. Briefly: Compound was evaluated against Human cell line melanoma SK-MEL-5.
The next experiment concerns SF-295. Briefly: Compound was evaluated against Human cell line CNS SF-295.
Another experiment has as its system OVCAR-3. Briefly: Compound was evaluated against Human cell line ovarian OVCAR-3.
The subject of the next experiment is P388. Briefly: Compound was evaluated against P388 mouse Leukemia cell line. As to conditions: read-out: ED50 (the source's name).
The subject of a further experiment is SW-1736. Briefly: Compound was evaluated against Human cell line thyroid SW1736.
The next experiment concerns DU-145. Briefly: Compound was evaluated against Human cell line prostate DU-145.
Another experiment concerns FaDu. Briefly: Compound was evaluated against Human cell line pharynx FADU.
The subject of a further experiment is SK-N-SH. The experiment in a line: Compound was evaluated against Human cell line neuroblast SK-N-SH.
The subject of the next experiment is BXPC-3. Briefly: Compound was evaluated against Human cell line pancreas BXPC-3.
Another experiment concerns KM-20L2. Briefly: Compound was evaluated against Human cell line colon KM20L2.
The subject of the next experiment is A498. The experiment in a line: Compound was evaluated against Human cell line renal A498.

Regarding `COc1ccc(/C=C\c2cc(OC)c(OC)c(OC)c2)c(O)c1O` [COMBRETASTATIN A-1], the MIC came to 100 ug disk-1 against Staphylococcus aureus and 50 ug disk-1 in the experiment on Neisseria gonorrhoeae.

For `COc1ccc(/C=C\c2cc(OC)c(OC)c(OC)c2)cc1O` [COMBRETASTATIN A4], the GI50 in the experiment on NCI-H460 is 0.00056 µg/mL (≈ 0.00177 µM); with SK-MEL-5, 0.0002 µg/mL (≈ 0.000632 µM); with SF-295 it was under 0.001 µg/mL; in the experiment with OVCAR-3 it was under 0.001 µg/mL; in the experiment on SW-1736, 0.00071 µg/mL (≈ 0.00224 µM); in the experiment with DU-145 it was 0.00076 µg/mL (≈ 0.0024 µM). Moreover, the GI50 is 0.00065 µg/mL (≈ 0.00205 µM) with FaDu, 0.00026 µg/mL (≈ 0.000822 µM) with SK-N-SH, 0.39 µg/mL (≈ 1.23 µM) in the experiment with BXPC-3 and 0.061 µg/mL (≈ 0.193 µM) in the experiment with KM-20L2. Besides, the EC50 in the experiment with P388 amounted to 0.00027 µg/mL (≈ 0.000853 µM). Moreover, the MIC with Neisseria gonorrhoeae came to 50 ug disk-1.

Take `COc1ccc(/C=C\c2cc(OC)c(OC)c(OC)c2)cc1OP(=O)([O-])O.[Na+]`: the MIC against Neisseria gonorrhoeae is 100 ug disk-1.

Consider `COc1ccc([C@H](O)[C@@H](O)c2cc(OC)c(OC)c(OC)c2)cc1O`, for which the GI50 with NCI-H460 amounted to 2.5 µg/mL (≈ 7.14 µM); in the experiment on SK-MEL-5, 0.7 µg/mL (≈ 2 µM); in the experiment on SF-295, 0.52 µg/mL (≈ 1.48 µM); in the experiment with OVCAR-3, 0.38 µg/mL (≈ 1.08 µM); in the experiment with SW-1736, 1.8 µg/mL (≈ 5.14 µM); in the experiment on DU-145, 2.1 µg/mL (≈ 5.99 µM). The GI50 in the experiment on A498 is 0.91 µg/mL (≈ 2.6 µM); in the experiment with FaDu, 0.6 µg/mL (≈ 1.71 µM); in the experiment with SK-N-SH it was 0.28 µg/mL (≈ 0.799 µM); in the experiment with BXPC-3, 3.9 µg/mL (≈ 11.1 µM); in the experiment on KM-20L2, 0.52 µg/mL (≈ 1.48 µM). Further, the EC50 in the experiment with P388 came out at 2 µg/mL (≈ 5.71 µM).

As for `COc1ccc([C@@H](O)Cc2cc(OC)c(OC)c(OC)c2)cc1O`, the GI50 is 9 µg/mL (≈ 26.9 µM) in the experiment with NCI-H460; over 10 µg/mL in the experiment with SW-1736; 7.6 µg/mL (≈ 22.7 µM) in the experiment with DU-145; 4.8 µg/mL (≈ 14.4 µM) in the experiment on FaDu; over 10 µg/mL in the experiment on SK-N-SH. In the experiment on P388, the EC50 is 32.9 µg/mL (≈ 98.4 µM).

`COc1ccc(CCc2cc(OC)c(OC)c(OC)c2)c(O)c1O` came in with an MIC in the experiment on Neisseria gonorrhoeae of 25 ug disk-1.

Regarding `COc1ccc([C@@H](O)[C@H](O)c2cc(OC)c(OC)c(OC)c2)cc1O`, the GI50 with NCI-H460 amounted to 4.4 µg/mL (≈ 12.6 µM); in the experiment with SK-MEL-5, 4.9 µg/mL (≈ 14 µM); in the experiment on SF-295 it was 5.7 µg/mL (≈ 16.3 µM); with OVCAR-3, 4.5 µg/mL (≈ 12.8 µM); with SW-1736, 6.1 µg/mL (≈ 17.4 µM); in the experiment on DU-145, 3.5 µg/mL (≈ 9.99 µM). The GI50 with A498 is over 10 µg/mL; with FaDu, 2.1 µg/mL (≈ 5.99 µM); with SK-N-SH, 1.5 µg/mL (≈ 4.28 µM); in the experiment on BXPC-3, over 10 µg/mL; with KM-20L2 it was 8.2 µg/mL (≈ 23.4 µM). Further, the EC50 in the experiment on P388 amounted to 19 µg/mL (≈ 54.2 µM).
